According to patent US10221198B2, “Preparation and medical use of triazenes” (Ecole Polytechnique Federale De Lausanne (EPFL), priority 2014, dated 2019):

Key:
Assay type in all cases: cell-based
[1] = system: human mammary epithelial cells (MCF-10A); experiment: Cytotoxicity test (MTT assay) on MCF-10A cells; details: 72 h exposure
Experimental: (§1) MDA-MB-231 breast adenocarcinoma cells (ATCC® HTB-26™), MCF-10a human mammary epithelial cells (ATCC® CRL-10317™) and HEK293 human embryonic kidney cells (ATCC® CRL-1573™) were obtained from ATCC (Middlesex, UK), the A2780 human ovarian carcinoma cell line was obtained from the European Collection of Cell Cultures (catalogue number 93112519, Salisbury, U.K.). All cell culture media were purchased from Life Technologies (Zug, Switzerland). A2780 cells were cultured in RPMI-1640 medium (Gibco, GlutaMax), while MDA-MB-231 and HEK293 cells were cultured in Dulbecco's Modified Eagle Medium (DMEM, Gibco, GlutaMax) supplemented with 10% fetal bovine serum (FBS, Sigma-Aldrich, Buchs, Switzerland) and 1% penicillin/streptomycin (Life Technologies, Zug, Switzerland). MCF-10A were cultured in DMEM/F12 medium containing 10% horse serum and 1% antibiotics, supplemented with 10 μg/mL insulin, 20 μg/mL hydrocortisone, 20 ng/mL epidermal growth factor and 100 ng/mL cholera toxin (all from Sigma Aldrich, Buchs, Switzerland). Cells were incubated in a CO2 incubator with 5% CO2 and 100% relative humidity at 37° C. MTT (MTT=3-(4,5-dimethyl-2-thiazolyl)-2,5-diphenyl-2H-tetrazolium bromide) was purchased from Calbiochem (Zug, Switzerland). Cell viability was determined by the MTT assay. The absorption was read using a SpectraMax M52 microplate reader (Molecular Devices, Sunnyvale, Calif., USA).
(§2) Cells were seeded in 96-well plates as monolayers with 100 μL of cell suspension (approximately 5000 cells) per well and preincubated for 24 h in medium supplemented with 10% FBS. With the exception of dacarbazine, all compounds were dissolved in DMSO. In the case of dacarbazine, an aqueous stock solution of the monocitrate was prepared in situ and immediately used (light sensitivity). The stock solutions were serially diluted in the culture medium to the appropriate concentration, to give a final DMSO concentration of no higher than 0.5%. 100 μL of the compound solution was added to each well, and the plates were incubated for 72 h. Subsequently, MTT (5 mg/mL solution) was added to the cells and the plates were incubated for a further 2 h. The culture medium was aspirated and the purple formazan crystals formed by the mitochondrial dehydrogenase activity of vital cells were dissolved in DMSO. The optical density, directly proportional to the number of surviving cells, was quantified at 590 nm using a multiwell plate reader, and the fraction of surviving cells was calculated from the absorbance of untreated control cells. Evaluation is based on means from at least two independent experiments, each comprising triplicates per concentration level.

[2] = system: human ovarian cancer cells (A2780); experiment: Cytotoxicity test (MTT assay) on A2780 cells; details: 72 h exposure
Experimental: as §1, §2

[3] = system: human invasive breast cancer cells (MDA-MB-231); experiment: Cytotoxicity test (MTT assay) on MDA-MB-231 cells; details: for IC50: MDA-MB-231, 72 h exposure, MTT assay, human invasive breast cancer cells; for SC, selectivity coefficient, IC50 MCF-10A/IC50 MDA-MB-231: ratio of 72 h IC50 values, MCF-10A over MDA-MB-231
Experimental: as §1, §2

[4] = system: non-cancer human embryonic kidney cells (HEK293); experiment: Cytotoxicity test (MTT assay) on HEK293 cells; details: 72 h exposure
Experimental: as §1, §2

Row | Compound | IC50 [1] | IC50 [2] | IC50 [3] | IC50 [4] | SC, selectivity coefficient, IC50 MCF-10A/IC50 MDA-MB-231 [3]
1 | CC(C)N(N=NC#Cc1ccccc1)C(C)C [Compound 1, 3,3-Diisopropyl-1-(phenylethynyl)triaz-1-ene] | 116 ± 2 µM | 56 ± 4 µM | > 500 µM | 44 ± 11 µM | 
2 | CC(C)N(N=NC#CC(C)(C)C)C(C)C [Compound 2, 1-(3,3-Dimethylbut-1-ynyl)-3,3-diisopropyltriaz-1-ene] | 299 ± 43 µM | 160 ± 40 µM | 176 ± 60 µM | 125 ± 5 µM | 1.7
3 | CC(C)N(C)N=NC#CC(C)(C)C [Compound 4, 1-(3,3-Dimethylbut-1-ynyl)-3-isopropyl-3-methyltriaz-1-ene] | 192 ± 12 µM | 32 ± 4 µM | 70 ± 10 µM | 29 ± 4 µM | 2.7
4 | CN(C)N=NC#CC(C)(C)C [Compound 5, 1-(3,3-Dimethylbut-1-ynyl)-3,3-dimethyltriaz-1-ene] | 52 ± 11 µM | 22 ± 3 µM | 38 ± 3 µM | 19 ± 2 µM | 1.4
5 | CCCCC#CN=NN(C(C)C)C(C)C [Compound 6, 1-(Hex-1-ynyl)-3,3-diisopropyltriaz-1-ene] | 254 ± 52 µM | 143 ± 29 µM | 199 ± 21 µM | 165 ± 65 µM | 1.2
6 | COCC#CN=NN(C)C(C)C [Compound 9, 3-Isopropyl-1-(3-methoxyprop-1-ynyl)-3-methyltriaz-1-ene] | 208 ± 49 µM | 20 ± 3 µM | 32 ± 4 µM | 14 ± 1 µM | 6.5
7 | CC(C)N(C)N=NC#CCN(C)C [Compound 10, 3-(3-Isopropyl-3-methyltriaz-1-enyl)-N,N-dimethylprop-2-yn-1-amine] | 86 ± 4 µM | 34 ± 4 µM | 14 ± 2 µM | 21 ± 5 µM | 6.1
8 | COCC#CN=NN(C)C [Compound 14, 1-(3-Methoxyprop-1-ynyl)-3,3-dimethyltriaz-1-ene] | 177 ± 23 µM | 43 ± 6 µM | 72 ± 9 µM | 24 ± 4 µM | 2.5
9 | CN(C)CC#CN=NN(C)C [Compound 15, 3-(3,3-Dimethyltriaz-1-enyl)-N,N-dimethylprop-2-yn-1-amine] | 113 ± 7 µM | 47 ± 3 µM | 45 ± 15 µM | 15 ± 4 µM | 2.4
